Results on one compound are retold here after publication PMC9956870, “Exploring functional and structural features of chemically related natural prenylated hydroquinone and benzoic acid from Piper crassinervium (Piperaceae) on bacterial peroxiredoxin inhibition” (PLOS ONE, 2023).

For assay [1], the target named is T1, alkyl hydroperoxide reductase C (SeAhpC) (Staphylococcus epidermidis, UniProt Q8CMQ2).
T1 construct: gene ahpC
T1 sequence (Q8CMQ2 1-189): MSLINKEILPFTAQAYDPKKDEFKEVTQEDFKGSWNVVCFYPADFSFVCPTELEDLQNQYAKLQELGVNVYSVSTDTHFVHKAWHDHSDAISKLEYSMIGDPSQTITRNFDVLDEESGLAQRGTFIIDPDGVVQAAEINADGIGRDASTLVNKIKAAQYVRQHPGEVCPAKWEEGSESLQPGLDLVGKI
In words: NADPH-coupled peroxidase assay. It counts as biochemical.

The target in assay [2] is T2, Prx2 (HsPrx2) (Homo sapiens, UniProt P32119).
T2 construct: gene PRDX2
T2 sequence (P32119 2-198): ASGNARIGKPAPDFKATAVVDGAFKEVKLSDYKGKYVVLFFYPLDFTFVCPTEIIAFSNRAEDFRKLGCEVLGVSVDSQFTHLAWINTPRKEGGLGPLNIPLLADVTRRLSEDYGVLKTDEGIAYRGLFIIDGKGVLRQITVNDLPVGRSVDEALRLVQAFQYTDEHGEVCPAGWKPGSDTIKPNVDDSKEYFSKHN
In words: NADPH-coupled peroxidase assay (yeast Trx system). It counts as biochemical.

Turning to `CCN1C(=O)C=CC1=O` [NEM, N-ethylmaleimide], the NADPH-coupled peroxidase assay result in assay [1] was “As expected for the samples subjected to NEM treatment, no peroxidase activity was detected to both enzymes”. Further, the peroxidase initial rate in assay [2] is reported as 0.02 ± 0.01 μMs^-1 (v0; untreated 0.62 ± 0.03).
